# Several values for one entry are separate records, joined by “and”; a condition that tells them apart may be missing. Identical values can stand only once.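 Method: 48-hour compound exposure of cells in 96-well plates, five concentrations, linear interpolation of endpoints. GI50 marks 50% less growth. The concentration for full growth arrest is given as TGI.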
# Experiments:
# Experiment in all cases: NCI tumour cell line growth inhibition, 48 h
# EKVX NSCLC = tested on: EKVX NSCLC
# HS 578T breast = tested on: HS 578T breast
# SF-539 CNS = tested on: SF-539 CNS
# SK-MEL-28 melanoma = tested on: SK-MEL-28 melanoma
# SK-MEL-5 melanoma = tested on: SK-MEL-5 melanoma
# SNB-75 CNS = tested on: SNB-75 CNS
# T-47D breast = tested on: T-47D breast
# TK-10 renal = tested on: TK-10 renal
# U251 CNS = tested on: U251 CNS
# A498 renal = tested on: A498 renal
Compound,GI50 (EKVX NSCLC),TGI (EKVX NSCLC),GI50 (HS 578T breast),TGI (HS 578T breast),GI50 (SF-539 CNS),TGI (SF-539 CNS),GI50 (SK-MEL-28 melanoma),TGI (SK-MEL-28 melanoma),GI50 (SK-MEL-5 melanoma),TGI (SK-MEL-5 melanoma),GI50 (SNB-75 CNS),TGI (SNB-75 CNS),GI50 (T-47D breast),TGI (T-47D breast),GI50 (TK-10 renal),TGI (TK-10 renal),GI50 (U251 CNS),TGI (U251 CNS),GI50 (A498 renal),TGI (A498 renal)
COc1ccc(/C(C)=C(\c2ccc(Cl)cc2)c2ccc(OCCN3CCCCC3)cc2)cc1F,4.78 µM,> 16.7 µM,2.83 µM,6.78 µM,2.42 µM,4.67 µM,2.67 µM,5.3 µM,2.76 µM,5.1 µM,4.29 µM,13.1 µM,4.25 µM,14.5 µM,3.49 µM,9.12 µM,2.68 µM,6.51 µM,–,–
Cc1cc(N2CCOCC2)nc(N(CCNc2ccnc3cc(Cl)ccc23)Cc2cccs2)n1,2.79 µM,44 µM,2.24 µM,5.45 µM,1.81 µM,3.32 µM,1.76 µM,3.7 µM,1.59 µM,2.96 µM,1.98 µM,5.25 µM,1.84 µM,4.4 µM,2.35 µM,6.57 µM,1.88 µM,3.64 µM,–,–
COc1ccc(C2CC(c3cccc(Nc4ccnc5cc(Cl)ccc45)c3)=NN2c2ccc(Cl)cc2)cc1 (centres undefined),–,–,14.7 µM,> 100 µM,1.8 µM,4.43 µM,7.07 µM,66.9 µM,3.01 µM,10.2 µM,12.5 µM,97.9 µM,0.702 µM,33.2 µM,12.9 µM,> 100 µM,–,–,4.64 µM,53.9 µM
Oc1ccc(-c2nc(-c3ccc4oc5ccc(-c6[nH]c(-c7ccc(O)cc7)nc6-c6ccccc6)cc5c4c3)c(-c3ccccc3)[nH]2)cc1,–,–,3.55 µM,68.7 µM,4.17 µM,21.3 µM,7.39 µM,40 µM,4.46 µM,75.5 µM,8.69 µM,67.6 µM,4.66 µM,> 100 µM,6.34 µM,19.2 µM,2.93 µM,15 µM,12.2 µM,26 µM
O=C(/C=C\c1ccc(Cl)c(Cl)c1)c1ccccc1,–,–,17 µM,52.5 µM,15.3 µM,29.6 µM,13.9 µM,27.3 µM,16.7 µM,30.9 µM,11.6 µM,23.8 µM,–,–,–,–,3.34 µM,15.6 µM,12.4 µM,25.2 µM
N#CC1=C(N)Oc2c(ccc3ccccc23)C1c1ccccc1Cl (centres undefined),0.652 µM,22.2 µM,0.226 µM,2.94 µM,0.233 µM,0.792 µM,1.92 µM,22.9 µM,0.487 µM,4.87 µM,0.163 µM,2.95 µM,–,–,4.95 µM,44.1 µM,0.407 µM,17.1 µM,0.0845 µM,0.496 µM
CC1SC(c2cccc(Oc3ccccc3)c2)N(CCc2cccs2)C1=O (centres undefined),0.368 µM,1.92 µM,–,–,1.5 µM,3.11 µM,1.42 µM,2.78 µM,0.607 µM,1.87 µM,1.3 µM,3.71 µM,0.594 µM,5.11 µM,1.59 µM,4.28 µM,1.11 µM,2.49 µM,1.21 µM,2.46 µM
COC(=O)[C@@H](C)C[C@H](Cc1ccccc1)NC(=O)c1cccc([C@@H](C[C@H](C(C)C)N(C)C(=O)[C@@H](NC(=O)[C@H]2CCCCN2C)C(C)C)OC(C)=O)n1,0.00497 µM,> 16.7 µM,0.00342 µM,> 11.8 µM,0.00275 µM,0.00795 µM,–,–,< 0.00167 µM,0.0252 µM,< 0.00167 µM,> 16.7 µM,–,–,–,> 16.7 µM,< 0.00167 µM,> 16.7 µM,–,–
COc1cc2c(c(OC)c1OC)-c1c(c3ccc([N+](=O)[O-])cc3c(=O)n1CCCN=[N+]=[N-])C2=O,> 100 µM,> 100 µM,12.2 µM,> 100 µM,13.5 µM,43.1 µM,> 100 µM,> 100 µM,> 100 µM,> 100 µM,–,–,34.8 µM,> 100 µM,13.1 µM,33.1 µM,8.36 µM,23.3 µM,11.9 µM,29.6 µM
CN(C)CCCn1c2c(c3ccc([N+](=O)[O-])cc3c1=O)C(=O)c1ccccc1-2,84.9 µM,> 100 µM,41.3 µM,> 100 µM,–,–,> 100 µM,> 100 µM,3.79 µM,16.6 µM,5.24 µM,19.3 µM,24.1 µM,> 100 µM,15.3 µM,73.7 µM,6.36 µM,27.7 µM,–,–
COc1cccc2c1C(=N)c1c(O)c3c(c(O)c1C2=O)C[C@@](O)(C(C)=O)C[C@@H]3OC1CC(N)C(O)C(C)O1 (some centres undefined),–,3.82 µM and 7.64 µM and 2.29 µM,–,–,–,–,–,5.83 µM and 13.7 µM and 20.1 µM,–,1.55 µM and 1.74 µM and 1.98 µM,–,–,0.0174 µM,4.86 µM,0.234 µM,3.7 µM and 2.02 µM,–,–,–,3.06 µM and 6.52 µM and 1.88 µM
CCCCCCn1c(=N)n(CC(O)COc2cccc(C)c2)c2ccccc21 (centres undefined),–,–,2.63 µM,8.27 µM,2.2 µM,4.43 µM,1.87 µM,3.51 µM,1.77 µM,3.2 µM,2.54 µM,12.2 µM,2.19 µM,4.86 µM,3.71 µM,12.8 µM,–,–,1.8 µM,7.35 µM
COc1ccc(/C=C2\CN(Cc3cn(CCCNc4ccnc5cc(Cl)ccc45)nn3)C/C(=C\c3ccc(OC)cc3)C2=O)cc1,–,–,6.27 µM,29.7 µM,13.9 µM,26.8 µM,14 µM,28 µM,10.5 µM,22.3 µM,3.89 µM,19.7 µM,21 µM,51.1 µM,16.5 µM,30.1 µM,5.53 µM,18.9 µM,2.2 µM,32.8 µM
CCOC(=O)c1ccccc1NC(c1ccccc1)c1ccc2cccnc2c1O (centres undefined),–,–,7.53 µM,> 100 µM,2.52 µM,10.2 µM,3.19 µM,> 100 µM,2.04 µM,6.74 µM,2.6 µM,89.8 µM,4.22 µM,> 100 µM,5.52 µM,> 100 µM,2.75 µM,16.5 µM,1.15 µM,8.05 µM
N#Cc1c(-c2ccc(Cl)cc2)n([O-])c2ccccc2[n+]1=O,5.63 µM,20.5 µM,24.6 µM,53.8 µM,17.9 µM,36 µM,44.8 µM,> 100 µM,15.9 µM,31.7 µM,21.4 µM,39.5 µM,6.47 µM,25.8 µM,11.7 µM,24.6 µM,4.37 µM,17.1 µM,–,–
Cn1c([N+](=O)[O-])cnc1/C=C1\Oc2ccc(Cl)cc2C1=O,–,–,1.83 µM,> 24.1 µM,1.62 µM,3.69 µM,1.14 µM,5.14 µM,0.727 µM,2.14 µM,0.63 µM,2.27 µM,4.07 µM,46.4 µM,1.04 µM,2.77 µM,1.16 µM,3.01 µM,1.89 µM,5.07 µM
Nc1cc2[nH]c(=O)c3cc(Cl)ccc3c2cc1Cl,–,> 100 µM,–,> 100 µM,–,25.8 µM,–,> 100 µM,–,27 µM,–,61.8 µM,–,> 100 µM,–,33.7 µM,–,26.1 µM,–,–
COc1ccc(C2CC(c3ccc(OC)c(OC)c3)=NN2C(=O)c2cc(OC)c(OC)c(OC)c2)cc1 (centres undefined),5.25 µM,> 100 µM,2.07 µM,> 100 µM,1.36 µM,> 21.7 µM,68.5 µM,> 100 µM,0.558 µM,4.83 µM,2.08 µM,> 100 µM,2.3 µM,> 100 µM,5.26 µM,> 100 µM,2.53 µM,> 100 µM,–,–
O=C1/C(=C/c2ccc([N+](=O)[O-])s2)Oc2ccc(Cl)cc21,–,–,0.372 µM,> 100 µM,0.219 µM,0.583 µM,0.336 µM,0.881 µM,0.343 µM,0.86 µM,0.486 µM,1.74 µM,0.309 µM,1.64 µM,0.372 µM,26.9 µM,0.263 µM,0.694 µM,1.74 µM,4.91 µM
COc1c(C)cnc(Cn2cnc3c(Cl)nc(N)nc32)c1C,–,–,3.53 µM,> 100 µM,0.605 µM,> 100 µM,0.546 µM,> 83.4 µM,0.557 µM,15.9 µM,3.13 µM,> 100 µM,0.11 µM,> 100 µM,0.0884 µM,> 100 µM,0.415 µM,> 100 µM,0.679 µM,23.4 µM
Cc1cccc(NC(=O)c2sc3nc4c(cc3c2N)CCC4)c1C,–,–,0.486 µM,16 µM,0.241 µM,2.51 µM,0.803 µM,39.6 µM,0.268 µM,11.1 µM,0.189 µM,0.815 µM,0.351 µM,34.7 µM,0.74 µM,26.5 µM,0.457 µM,15.8 µM,0.262 µM,0.938 µM

# — PubChem BioAssay (NCI)
